Results taken from patent publication US12622944B2, “Compositions containing, methods involving, and uses of non-natural amino acid linked dolastatin derivatives” (priority 2011, dated 2026).
Read-outs that look alike come from different tables or passages of the source.

Tests used:
[1] = system: HCC1954 (human breast carcinoma) xenograft; assay: In vivo anti-tumor efficacy in HCC1954 xenograft, SCID-bg mice; details: 25 mg/kg iv qod × 5; day 28; HCC1954 study
Procedure: HCC1954 (human breast carcinoma) cells were obtained from American Type Culture Collection (Manassas, VA) and cultured in RPMI+10% FBS, 37° C., 5% CO2 until 80% confluent. Cells were harvested by trypsinization and suspended in PBS at 1×10^8 cells/mL.
Female, SCID-beige mice, 5-8 weeks old, were obtained from Charles River Laboratories. HCC1954 cells (human, breast carcinoma, ATCC, #CRL-2338) were mixed 1:1 with Matrigel (BD Biosciences, Bedford MA) and injected subcutaneously into the mice. When tumors reached an average size of 100-200 mm^3, mice were sorted into groups of 9-10 mice each. Caliper measurements were taken twice weekly until the end of the study. To estimate tumor volume, two orthogonal diameters were measured with calipers and the values entered into the formula, (L×W×W)/2=V, (where W=the shortest diameter, L=the longest diameter and V-volume), to obtain an estimated volume. The tumor volume was converted to tumor weight in the Excel data file by assuming 1 mm^3=1 mg. Endpoint was based on a study design of tumor growth inhibition (TGI). When the mean tumor volume of the control group reached approx. 1,000 mm^3 all mice were euthanized or day 28, whichever came first. […]
HCC1954 cells were utilized for this study with 10 cells/mouse in Matrigel, SC in the right flank. […] Tumor volume was monitored until the endpoint was reached (1,000 mm^3 or 60 days). […]

NCI-N87 = assay: In vitro inhibition of proliferation assay (WST-8), NCI-N87; type: cell-based; details: Data Set I, experiment Sept. 4, 2010, read-out: IC50 Values [nM] after 72 hr drug treatment
Procedure: (§1) At day 1, the cells were seeded. The media was aspirated and the T-225 culture flasks of cells was rinsed with 30 mL PBS−/. PBS was aspirated and 6 mL of 0.25% Trypsin-EDTA was added to each flask. The flasks were incubated at 37° C., 5% CO2 for 2-5 minutes. Adherent cells were dislodged by hitting flask and trypsin was neutralized by adding 14 mL culture medium. The cell suspension was mixed and transferred to a 50 mL conical tube. The cells were spun down at 1200 rpm, 5 min, room temperature. The resultant cell pellet was resuspended in 12 mL of culture medium. The cells were counted in a hemacytometer. Cells were seeded at appropriate cell densities into 96-well flat-bottom, clear plates and incubated overnight at 37° C., 5% CO2 to allow cells to attach. Plating volume was 80 uL/well. 80 uL/well of culture medium was utilized as the “no cell” control.
(§2) At day 2, the test samples were added to the cells. The test samples were diluted in culture medium to a 9× stock concentration in Column 2 of a round-bottom 96-well plate. 3× serial dilutions were made from Column 2 to Column 11 with a multi-channel pipettor. 10 uL/well of the above samples was added in duplicate to the appropriate wells of the seeded plate. The total volume in the wells was about 90 uL/well. […]
(§3) At day 5, proliferation readout occurred. […] The plates were measured for absorbance at OD 450 nm. […]

BT474 = assay: In vitro inhibition of proliferation assay (WST-8), BT474; type: cell-based
Procedure: as §1
(§4) Cell plating density examples include: • BT474 (high Her2)—20,000 cells/well in F12k/DMEM (50/50), 10% FBS, P/S • MDA-MB-468 (Her2 negative)-6,000 cells/well in F12k/DMEM (50/50), 10% FBS, P/S • HCC1954—5,000 cells/well in RPMI 1640, 10% FBS, P/S • SKOV-3—6,000 cells/well in RPMI 1640, 10% FBS, P/S • HT29—20,000 cells/well in McCoy's 5A, 10% FBS, P/S
(§5) At day 2, the test samples were added to the cells. The test samples were diluted in culture medium to a 9× stock concentration in Column 2 of a round-bottom 96-well plate. 3× serial dilutions were made from Column 2 to Column 11 with a multi-channel pipettor. 10 uL/well of the above samples was added in duplicate to the appropriate wells of the seeded plate. The total volume in the wells was about 90 uL/well. 10 uL/well of culture medium was added to avoid edge effects for sample wells. Media Control wells were included in the inner wells where no sample was added (just 10 uL/well of culture medium) to be used in proliferation calculations. The plates were incubated at 37° C., 5% CO2 for 72 hrs.
as §3

HT29 = assay: In vitro inhibition of proliferation assay (WST-8), HT29; type: cell-based; details: Data Set II, experiment Sept. 24, 2010, read-out: IC50 Values [nM] after 72 hr drug treatment
Procedure: as §1, §4
(§6) At day 2, the test samples were added to the cells. […]
as §3

MDA-MB-175 = assay: In vitro inhibition of proliferation assay (WST-8), MDA-MB-175; type: cell-based; details: Data Set I, experiment Sept. 13, 2010
Procedure: as §1, §2, §3

HCC1954 = assay: In vitro inhibition of proliferation assay (WST-8), HCC1954; type: cell-based, human; details: read-out: IC50 Values [nM] after 72 hr drug treatment
Procedure: as §1, §4, §6, §3

MDA-MB-468 = assay: In vitro inhibition of proliferation assay (WST-8), MDA-MB-468; type: cell-based; details: Data Set II, experiment Oct. 8, 2010, read-out: IC50 Values [nM] after 72 hr drug treatment
Procedure: as §1, §4, §6, §3

LS513 = assay: In vitro inhibition of proliferation assay (WST-8), LS513; type: cell-based; details: Data Set I, experiment Sept. 4, 2010, read-out: IC50 Values [nM] after 72 hr drug treatment
Procedure: as §1, §2, §3

SKOV-3 = assay: In vitro inhibition of proliferation assay (WST-8), SKOV-3; type: cell-based
Procedure: as §1, §4, §5, §3

ZR-75-30 = assay: In vitro inhibition of proliferation assay (WST-8), ZR-75-30; type: cell-based; details: Data Set I, experiment Sept. 4, 2010, read-out: IC50 Values [nM] after 72 hr drug treatment
Procedure: as §1, §2, §3

[2] = Data Set I, experiment Sept. 4, 2010, read-out: IC50 Values [nM] after 72 hr drug treatment
[3] = Data Set I, experiment Sept. 13, 2010, read-out: IC50 Values [nM] after 72 hr drug treatment

| Molecule | Median Tumor Volume (mm3) [1] | T/C (Treated/Control) [1] | IC50 (NCI-N87) | IC50 (BT474; [2]) | IC50 (BT474; [3]) | IC50 (BT474; Data Set II, experiment Sept. 24, 2010, read-out: IC50 Values [nM] after 72 hr drug treatment) | IC50 (HT29) | IC50 Values [nM] after 72 hr drug treatment (MDA-MB-175) | IC50 (HCC1954; HCC1954, Data Set I, experiment Sept. 4, 2010) | IC50 (HCC1954; HCCI954, Data Set II, experiment Oct. 8, 2010) | IC50 (MDA-MB-468) | IC50 (LS513) | IC50 (SKOV-3; [2]) | IC50 (SKOV-3; [3]) | IC50 (SKOV-3; Data Set II, experiment Oct. 8, 2010, read-out: IC50 Values [nM] after 72 hr drug treatment) | IC50 (ZR-75-30) |
| --- | --- | --- | --- | --- | --- | --- | --- | --- | --- | --- | --- | --- | --- | --- | --- | --- |
| CC(=O)O[C@H]1C(=O)[C@@]2(C)[C@H]([C@H](OC(=O)c3ccccc3)[C@]3(O)C[C@H](OC(=O)[C@H](O)[C@@H](NC(=O)c4ccccc4)c4ccccc4)C(C)=C1C3(C)C)[C@]1(OC(C)=O)CO[C@@H]1C[C@@H]2O [paclitaxel] | 18 mm3 | 0.037 |  |  |  |  |  |  |  |  |  |  |  |  |  |  |
| Dolastatin |  |  | > 30 nM | 0.1 nM | 0.1 nM | 2.5 nM | 4 nM | no fit | 0.06 nM | 0.04 nM | < 0.01 nM | 0.2 nM | 0.2 nM | 0.1 nM | 0.2 nM | > 30 nM |
